Patent US5504240A, “Borane-hydroxydialkylsulfide borates” (Aldrich Chemical Company, Inc., priority 1995, dated 1996)
Values after ≈ are worked out from the molar mass of the structure shown.

test: not given; settings: in BH3; liquid; prior art; cited from earlier work

Row | Compound | borane concentration [M]
1 | [BH3-][S+]1CCOCC1 [Borane-1,4-thioxane] | 8

test: not given; settings: prior art; cited from earlier work

Row | Compound | stability
2 | [BH3-][S+]1CCOCC1 [Borane-1,4-thioxane] | stable over prolonged periods
3 | [BH3-][S+](C)C [Borane-methyl sulfide] | much more stable than borane-tetrahydrofuran
4 | [BH3-][O+]1CCCC1 [Borane-tetrahydrofuran] | unstable over a period of time

test: active hydride analysis of borane adducts ([BH3], by hydrolysis and hydrogen evolved); type: physicochemical; settings: estimated by hydrolysis in water:glycerol:THF 1:1:1 and measuring hydrogen evolved
Procedure: Alternatively, borate esters were prepared from the reaction of borane-tetrahydrofuran with hydroxysulfide in molar ratio 1:3. Quantitative borate ester formation was confirmed by measuring the hydrogen evolved. Warming of the reaction mixture (60°-65° C.) is necessary to drive the reaction to completion. Generally speaking, the novel compounds of this invention are conveniently prepared in a straight-forward procedure by passing diborane into a neat borate ester at 0° C. in a bubbler provided with a stirrer. Excess diborane not absorbed by the borate ester is absorbed in a down-stream bubbler containing tetrahydrofuran over mercury and cooled in ice water. A mercury bubbler is connected to the exit. Diborane is passed into the ester until the concentration of excess borane in THF reaches approximately 1M. The borane-borate adduct is stirred overnight at room temperature prior to disconnecting the bubblers and analyzed for active hydride following the procedure described by Brown, H. C., Organic Syntheses via Boranes, J. Wiley: New York, 1975, p. 191, using a 2M hydrochloric acid-glycerol-water(2:1:1) hydrolysis solution.
A 100 ml one-neck, round-bottom flask equipped with a septum inlet, magnetic stirring bar and an adapter with a stopcock was charged with boron trifluoride diglyme (20 mmol). A 2M solution of sodium borohydride in triglyme (7.5 ml, 15 mmol) was added dropwise by means of a hypodermic syringe. Generation of diborane is smooth and the reaction is not exothermic. Generated diborane was passed through a bubbler containing sodium borohydride (0.1 g) in diglyme (5 ml) and a trap cooled to -78° C. was absorbed in neat 2-(tert-butylthio)ethanol (7.94 g, 60 mmol) at room temperature. After the addition was completed, the solution of borate was stirred at 50° C. for 15 min under a slow stream of nitrogen to produce the borate ester tris 2-(tert-butylthio)ethyl borate at room temperature. Escaped diborane was absorbed in the following bubbler containing tetrahydrofuran (10 ml) over mercury and cooled in ice water. A mercury bubbler was connected to the exit. Diborane was passed into the solution until the concentration of borane in the THF reached approximately 1M. The borane adduct, a colorless liquid, was analyzed for active hydride by a standard procedure using a water:glycerol:THF 1:1:1 hydrolyzing mixture. Concentration 6.4M, ^11 B NMR δ -26.03.
^b Estimated by hydrolysis in water: glycerol: THF 1:1:1 and measurin

Row | Compound | [BH3] [M]
5 | [BH3-][S+](CCOB(OCC[S+]([BH3-])C(C)(C)C)OCC[S+]([BH3-])C(C)(C)C)C(C)(C)C (stereo not drawn) [9a, Tris 2-(tert-Butylthio)ethyl!borate borane adduct (1:3)] | 6.4
6 | [BH3-][S+](CCOB(OCC[S+]([BH3-])CCC(C)C)OCC[S+]([BH3-])CCC(C)C)CCC(C)C (stereo not drawn) [9b] | 5.9
7 | [BH3-][S+](CC)CCOCCOB(OCCOCC[S+]([BH3-])CC)OCCOCC[S+]([BH3-])CC (stereo not drawn) [9c, tris 2-2-(Ethylthio)ethoxy!ethyl!borate borane adduct (1:3)] | 5.7
8 | [BH3-][S+](CCOCCOB(OCCOCC[S+]([BH3-])C(C)(C)C)OCCOCC[S+]([BH3-])C(C)(C)C)C(C)(C)C (stereo not drawn) [9d, tris 2-2-(tert-Butylthio)ethoxy!ethyl!borate borane adduct (1:3)] | 5.5
9 | [BH3-][S+](CCOCCOB(OCCOCC[S+]([BH3-])CCC(C)C)OCCOCC[S+]([BH3-])CCC(C)C)CCC(C)C (stereo not drawn) [9e, tris 2-2-(Isoamylthio)ethoxy!ethyl borate borane adduct (1:3)] | 5.0
10 | [BH3-][S+](CC)CCOCCOCCOB(OCCOCCOCC[S+]([BH3-])CC)OCCOCCOCC[S+]([BH3-])CC (stereo not drawn) [9f, tris 2-2-2-(Ethylthio)ethoxy!ethoxy!ethyl!borate borane adduct (1:3)] | 5.2
11 | [BH3-][S+](CCOCCOCCOB(OCCOCCOCC[S+]([BH3-])C(C)(C)C)OCCOCCOCC[S+]([BH3-])C(C)(C)C)C(C)(C)C (stereo not drawn) [9g, tris 2-2-2-(tert-Butylthio)ethoxy!ethoxy!ethyl!borate borane adduct (1:3)] | 4.2
12 | [BH3-][S+](CCOCCOCCOB(OCCOCCOCC[S+]([BH3-])CCC(C)C)OCCOCCOCC[S+]([BH3-])CCC(C)C)CCC(C)C (stereo not drawn) [9h, tris 2-2-2-(Isoamylthio)ethoxy!ethoxy!ethyl!borate borane adduct (1:3)] | 4.0
13 | [BH3-][S+](CCOC)CCOB(OCC[S+]([BH3-])CCOC)OCC[S+]([BH3-])CCOC (stereo not drawn) [9i, tris 2-(2-Methoxyethylthio)ethyl!borate borane adduct (1:3)] | 6.0

test: not given; settings: prior art; cited from earlier work; remark: another data set of the same source

Row | Compound | solubility in water
14 | [BH3-][S+]1CCOCC1 [Borane-1,4-thioxane] | limited solubility in water
15 | CSC [dimethyl sulfide] | not soluble in water

test: solubility in water of hydroxysulfides (1 g per ... mL H2O); type: physicochemical; settings: mL H2O per 1 g hydroxysulfide

Row | solubility in water 1 g per ... mL H2O [mL] | Compound
16 | 100 | CC(C)CCSCCOCCOCCO [i-AmSCH2 CH2 OCH2 CH2 OCH2 CH2 OH, 2-2-2-(isoamylthio)ethoxy!ethoxy!ethanol]
17 | < 100 | CC(C)CCSCCOCCO [i-AmSCH2 CH2 OCH2 CH2 OH, 2-2-(isoamylthio)ethoxy!ethanol]
18 | < 100 | CC(C)CCSCCO [i-AmSCH2 CH2 OH, 2-(isoamylthio)ethanol]

same assay, conditions: water

Row | solubility in water 1 g per ... mL H2O (in words) | Compound
19 | miscible | CCSCCOCCOCCO [Et--SCH2 CH2 OCH2 CH2 OCH2 CH2 OH, 2-2-2-(ethylthio)ethoxy!ethoxy!ethanol]
20 | miscible | CCSCCOCCO [EtSCH2 CH2 OCH2 CH2 OH, 2-2-(ethylthio)ethoxy!ethanol]
21 | miscible | COCCSCCO [H3 COCH2 CH2 SCH2 CH2 OH, 2-(2-methoxyethylthio)ethanol]
22 | miscible | CC(C)(C)SCCOCCOCCO [t-BuSCH2 CH2 OCH2 CH2 OCH2 CH2 OH, 2-2-2-(tert-butylthio)ethoxy!ethoxy!ethanol]

same assay, conditions: water; mL H2O per 1 g hydroxysulfide

Row | solubility [mg/mL] | Compound
23 | 66.7 (≈ 374 mM) | CC(C)(C)SCCOCCO [t-BuSCH2 CH2 OCH2 CH2 OH, 2-2-(tert-butylthio)ethoxy!ethanol]
24 | 20 (≈ 149 mM) | CC(C)(C)SCCO [t-BuSCH2 CH2 OH, 2-(tert-butylthio)ethanol]
